What was measured:
[1] = tested on: bone marrow failure mouse induced by busulphan (BU); test: Flow cytometric analysis of bone marrow cells in BU bone marrow failure model; format: in vivo, Balb/c mice
Description: (§1) Bone marrow failure model induced by administering busulphan (BU) was designed according to the procedures previously described by Molyneux et al (Cell Biol Toxicol 27, 13-40, 2011) and the scheme is shown in FIG. 8. BU (Sigma chemicals, Poole, Dorset, UK) was dissolved in acetone to a final concentration of 18.8 mg/ml, diluted five-fold with distilled water, and was intraperitoneally administered three times for 5 days with the dose of 0.2 ml BU solution per mouse. Equal amount of five-fold diluted acetone solution without BU was administered to vehicle control group. QGR was dissolved in dimethylsulfoxide and diluted with distilled water to a final concentration of 1.25%. Mice were orally administered every two days with QGR (0.25 mg/mouse) for 63 days. Seven or eight mice were sacrificed on days of 1, 5, 10, 16, 25, 40, 49, and 63 after BU administration and were investigated to confirm the effect of QGR to recover bone marrow failure.
In order to investigate whether QGR has an activity to recover bone marrow failure induced by BU administration, the expression of markers associated with hematopoietic stem cells/progenitors (Sca-1^+ or c-kit^+), bone mesenchymal stem/progenitor cells (Sca-1^+CD44^+), apoptotic hematopoietic stem cells (c-Kit^+7-aminoactinomycin D^+) were measured by flow cytometry. The retrieved BMNCs with the concentration of 0.6×10^6 cells/ml were precipitated by centrifugation, re-suspended in 100 μl of PBS containing 0.02% sodium azide and 2% FBS, and incubated with 10 μl of mouse anti-CD16/CD32 Ab (eBioScience, San Diego, Calif., USA) as FC receptor blocker for 3 min at room temperature. After that, monoclonal antibodies for c-kit (2B8, BD Pharmingen, USA), Sca-1 (D7, eBioscience), CD44 (IM7, eBioscience) were added and further incubated for 30 min under the temperature of 4° C. Isotype-matched irrelevant rat IgG2b-FITC (eBioscience) and isotype-matched irrelevant rat IgG2a-PE (eBioscience) were used as negative control. The flow cytometric analysis was carried out using FACS Calibur (Becton Dickinson, Oxnard, Calif., USA) and the percentage of positively stained cells was determined. The double staining of c-kit and 7-AAD (Calbiochem-Novabiochem, Nottingham, UK) was carried out according to the procedures previously described by Philpott et al (Exp Hematol, 23, 1642-1648, 1995).

[2] = tested on: bone marrow failure mouse induced by busulphan (BU); test: Histopathological features of bone marrow and osteoid formation in BU bone marrow failure model; format: in vivo, Balb/c mice
Description: as §1
In order to confirm histological bone marrow damage induced by BU administration and to investigate whether QGR recovers the damaged bone marrow, histopathological features of H&E staining slide of the respective group's bone marrow were observed and compared to each other among the groups. In addition, the degree of sinusoid damage in bone marrow was graded as normal, hemorrhage or discontinuous, regressed vessel, assigned with numerical value and compared to each other among the groups. Moreover, in order to investigate the effect of QGR on the differentiation and maturation from mesenchymal stem cells to osteoblast, the formation of osteoid in humerus was comparatively analyzed. Goldner's trichrome staining was carried for osteoid and the stained area of the respective group was compared with each other after determining the stained area by using an image analyzer.

[3] = tested on: lipopolysaccharide (LPS)-stimulated RAW 264.7 macrophage cells; settings: cited from earlier work
LPS-induced Balb/c mice = settings: cited from earlier work

SMILES: CC1OC(Oc2c(-c3ccc(O)c(O)c3)oc3cc(O)cc(O)c3c2=O)C(OC(=O)c2cc(O)c(O)c(O)c2)C(O)C1O (stereo not drawn) [QGR, quercetin 3-O-β-(2″-galloyl)-rhamnopyranoside]
- number of cells positive for Sca-1 (HSPCs) ([1]; after 10 days of QGR administration, vs positive control group): increased
- number of c-kit positive cells (HSPCs) ([1]; at 10 days after QGR administration, significant difference from positive control at 16 days): increased
- number of MSPCs (CD44+Sca-1+ cells) ([1]; time course, remarkably decreased in positive control group): no change
- number of apoptotic HSPCs ([1]; time course, significantly increased from 10 days in positive control group): no change
- degree of osteoid formation ([2]; Goldner's trichrome staining, vs positive control group): actively formed
- number of cells in bone marrow of humerus (cellularity) ([2]; H&E, vs positive control group): recovered
- number of regressed sinusoid ([2]; day 10): significantly decreased
- number of normal sinusoid ([2]; day 10, vs positive control group (BU)): greater
- number of normal sinusoids ([2]; day 63): increased
- numbers of hemorrhagic sinusoids ([2]; day 63): significantly decreased
- numbers of regressed sinusoids ([2]; day 63): significantly decreased
- area of osteoid formation ([2]; from day 10 after QGR administration, vs positive control group): increased significantly
- number of megakaryocytes surrounding sinusoid ([2]; from day 16 after QGR administration, vs positive control group): increased
- sinusoidal endothelia in the bone marrow ([2]; vs severely damaged sinusoids in positive control group): recovered sinosoids
- nitric oxide production [3]: inhibiting
- nitric oxide production (LPS-induced Balb/c mice): inhibiting

Reference: US9289444B2, “Composition for promoting hematogenesis containing quercetin 3-O-β-(2″-galloyl)-rhamnopyranoside as active ingredient” (Chungbuk National University Industry Academic Cooperation …, priority 2011, dated 2016)
